Source: the NIST ThermoML archive (doi:10.1021/je100581m)
± gives the expanded uncertainty stated by the source.

Test: xn = mol fraction of the nth substance listed
Details: Liquid, Vibrating tube method

C=CC(C)(O)CCC=C(C)C (stereo not given) [3,7-dimethyl-1,6-octadien-3-ol] + CCCO
mass density [kg/m3]
Details	x2 = 0	x2 = 0.107	x2 = 0.206	x2 = 0.3066	x2 = 0.4064	x2 = 0.501	x2 = 0.6034	x2 = 0.7055	x2 = 0.7985	x2 = 0.898
283.15 K, 100 kPa	869.5 ± 1.1	867 ± 1.1	864.9 ± 1.1	862.1 ± 1	859 ± 1	855.4 ± 1	850.3 ± 1	843.7 ± 1	835.9 ± 1	825.2 ± 1
283.15 K, 5000 kPa	872.6 ± 1.1	870.2 ± 1.1	868.1 ± 1.1	865.4 ± 1.1	862.2 ± 1	858.6 ± 1	853.6 ± 1	847 ± 1	839.3 ± 1	828.8 ± 1
283.15 K, 10000 kPa	875.7 ± 1.2	873.1 ± 1.1	871 ± 1.1	868.3 ± 1.1	865.2 ± 1	861.6 ± 1	856.7 ± 1	850 ± 1	842.4 ± 1	832 ± 1
283.15 K, 15000 kPa	878.7 ± 1.2	876.2 ± 1.1	874.1 ± 1.1	871.4 ± 1.1	868.3 ± 1	864.8 ± 1	859.9 ± 1	853.3 ± 1	845.8 ± 1	835.5 ± 1
283.15 K, 20000 kPa	881.5 ± 1.2	879 ± 1.1	876.9 ± 1.1	874.4 ± 1.1	871.3 ± 1.1	867.7 ± 1	862.8 ± 1	856.3 ± 1	848.8 ± 1	838.6 ± 1
298.15 K, 100 kPa	857.3 ± 1.1	854.8 ± 1.1	852.7 ± 1.1	849.9 ± 1	846.8 ± 1	843.2 ± 1	838.2 ± 1	831.6 ± 1	824 ± 1	813.4 ± 1
298.15 K, 5000 kPa	860.6 ± 1.1	858.1 ± 1.1	856 ± 1.1	853.3 ± 1.1	850.2 ± 1	846.7 ± 1	841.7 ± 1	835.1 ± 1	827.7 ± 1	817.2 ± 1
298.15 K, 10000 kPa	863.9 ± 1.2	861.4 ± 1.1	859.4 ± 1.1	856.6 ± 1.1	853.6 ± 1	850.1 ± 1	845.2 ± 1	838.7 ± 1	831.2 ± 1	820.8 ± 1
298.15 K, 15000 kPa	867 ± 1.2	864.6 ± 1.1	862.6 ± 1.1	859.9 ± 1.1	856.8 ± 1.1	853.3 ± 1	848.5 ± 1	842 ± 1	834.6 ± 1	824.4 ± 1
298.15 K, 20000 kPa	870 ± 1.2	867.7 ± 1.1	865.6 ± 1.1	863 ± 1.1	859.9 ± 1.1	856.5 ± 1	851.6 ± 1	845.2 ± 1	837.9 ± 1	827.8 ± 1
313.15 K, 100 kPa	844.5 ± 1.1	842.1 ± 1.1	840.1 ± 1.1	837.3 ± 1	834.1 ± 1	830.5 ± 1	825.6 ± 1	819.1 ± 1	811.6 ± 1	801.2 ± 1
313.15 K, 5000 kPa	848.2 ± 1.1	845.8 ± 1.1	843.8 ± 1.1	841.1 ± 1.1	837.9 ± 1	834.4 ± 1	829.5 ± 1	823.1 ± 1	815.6 ± 1	805.3 ± 1
313.15 K, 10000 kPa	851.6 ± 1.1	849.3 ± 1.1	847.3 ± 1.1	844.6 ± 1.1	841.5 ± 1	838 ± 1	833.2 ± 1	826.8 ± 1	819.4 ± 1	809.2 ± 1
313.15 K, 15000 kPa	855 ± 1.2	852.8 ± 1.1	850.8 ± 1.1	848.1 ± 1.1	845.1 ± 1.1	841.5 ± 1	836.7 ± 1	830.4 ± 1	823.2 ± 1	813.1 ± 1
313.15 K, 20000 kPa	858.4 ± 1.2	856.1 ± 1.1	854.1 ± 1.1	851.5 ± 1.1	848.4 ± 1.1	844.9 ± 1.1	840.2 ± 1	833.9 ± 1	826.7 ± 1	816.7 ± 1
328.15 K, 100 kPa	831.7 ± 1.1	829.4 ± 1.1	827.3 ± 1.1	824.5 ± 1	821.3 ± 1	817.7 ± 1	812.8 ± 1	806.3 ± 1	799 ± 1	788.7 ± 1
328.15 K, 5000 kPa	835.6 ± 1.1	833.3 ± 1.1	831.2 ± 1.1	828.5 ± 1.1	825.3 ± 1	821.8 ± 1	816.9 ± 1	810.5 ± 1	803.3 ± 1	793.1 ± 1
328.15 K, 10000 kPa	839.5 ± 1.1	837.2 ± 1.1	835.2 ± 1.1	832.5 ± 1.1	829.3 ± 1	825.8 ± 1	821 ± 1	814.7 ± 1	807.5 ± 1	797.5 ± 1
328.15 K, 15000 kPa	843.1 ± 1.2	840.9 ± 1.1	838.8 ± 1.1	836.2 ± 1.1	833 ± 1.1	829.5 ± 1	824.8 ± 1	818.5 ± 1	811.4 ± 1	801.5 ± 1
328.15 K, 20000 kPa	846.7 ± 1.2	844.4 ± 1.1	842.4 ± 1.1	839.8 ± 1.1	836.7 ± 1.1	833.2 ± 1.1	828.5 ± 1	822.3 ± 1	815.2 ± 1	805.3 ± 1
